# Results from patent publication US11447534B2, “Peptide complex with immunodulatory and anti-inflammatory function” (NATIONAL INSTITUTE OF IMMUNOLOGY, priority 2018, dated 2022).
# Assays:
# [1] = tested on: carrageenan induced paw edema; assay: Carrageenan induced paw inflammation in mice; assay type: in vivo, mouse
# Description: The effect of A-O complex was tested under in vivo conditions. Carrageenan, an inflammation inducing agent was injected into the hind foot pad of mouse to induce acute inflammation. The edema attains peak at around 3 hours post carrageenan challenge. This is a convenient model to assess the anti-inflammatory potency of test drugs to reduce or prevent the development of swelling. The protocol followed herein is as per Morris (2003) [Morris C J, 2003, Carrageenan induced paw edema in rat and mouse. In: Winyard P. G., Willoughby D. A. (eds) Inflammation Protocols. Methods in Molecular Biology, Vol 225. Humana Press. Pp 115-121].
# Preparation of carrageenan: To prepare 0.5% of carrageenan solution, 50 mg of lamda-carrageenan ([…], Sigma Chemical Co., St. Louis, Mo., USA) was slowly added onto a small beaker containing 10 ml of normal saline. The powder was allowed to swell for some time and then slightly heated (not boiled) to dissolve the carrageenan. The solution was stirred during the heating. Once dissolved, the solution was cooled and aliquoted and stored at 4 degree Celsius.
# Method: For experiment, the mice were acclimatized in cages under standard light and temperature settings with access to food and water ad libitum. Mice were acclimatized for 1 week in respective cages to minimize stress. At the day of experiment, mice were placed in a temporary animal restraint and 50 microlitre of carrageenan solution was administered by intraplantar injection to the right hind paw of each mouse. The left paw served as control and was administered 50 microlitre of normal saline.
# To determine the efficacy of A-O complex different concentrations of complex viz. 5, 20 and 50 microgram per 100 g body weight of mice were administered intraperitoneally 1 hour before carrageenan challenge. Ibuprofen (100 mg/kg, Sigma Chemical Co., St. Louis, Mo., USA) served as positive control for the experiment. Paw size was measured by wrapping a piece of cotton thread round the paw of each […] and recording the length of the thread, the paw circumference, by use of a metric ruler. Paws were measured immediately before and at specified time points after carrageenan injection. Inhibitory activity was calculated at 1-5 h after carrageenan injection with the following formula: % Inhibition=[(Ct−C0)control−(Ct−C0)treated]/(Ct−C0)control×100, where Ct is paw size after carrageenan injection and C0 is paw size before carrageenan injection.
# [2] = tested on: ConA activated macrophages; assay: qPCR in ConA activated macrophages; assay type: cell-based, murine
# Description: To determine the immunomodulatory effect of A-O complex, serum starved macrophages were exposed to the complex. Macrophages (1×10^6 cells) were serum starved for 30 min after which cells were exposed to A-O complex. After 1 hour, cells were washed with 1×PBS (pH 7.4) and harvested using cell dissociation solution. Then the cells were suspended in ice cold staining buffer (100 μl) and centrifuged at 1000 rpm for 5 min at 4° C. The cells were resuspended in 100 μl ice cold staining buffer for 10 min at 2-8° C. and pellet resuspended in 50 μl staining media. To this 2 μl of Fc block or anti-mouse CD16/CD32 was added for 10 mins and washed with staining buffer. The cells were resuspended in 50 μl of staining buffer and incubated with fluorescent-tagged CD36 antibody (e-biosciences) for 25-30 min on ice. The excess stain was removed by washing and pelleting down using staining buffer thrice by spinning and removal of staining buffer. The cell suspension was fixed 1:1 ratio (staining buffer:fixative) and analysed within 48 h in ARIA3 DIVA software version 6.1. Further, expression of MHC-II, and CD-36, was also determined in the microglial cells via qPCR. For this RNA extraction was performed using RNA extraction kit from Qiagen according to the manufacturer's instruction. cDNA synthesis was performed using cDNA synthesis kit from Qiagen. […] Following amplification, fold changes in gene expression versus β-actin (reference) analysis was determined using the 2^ΔΔCT(Livak) method. To determine the immunomodulatory effect of A-O complex on activated macrophages, macrophages were activated with Concanavalin-A (Con-A), for 30 minutes and the changes in mRNA levels of Cd36, Lrp1, Cd11b, Cd74 and Apoe were analyzed by qPCR.
# [3] = tested on: carrageenan challenged mice; assay: Carrageenan induced nitrite production in serum (Griess reaction); assay type: in vivo, mouse; settings: 50 microgram of A-O complex, 3rd hour post carrageenan challenge
# Description: Measurement of nitric oxide in serum: Nitric oxide concentration in serum of carrageenan challenged mice with or without treatment was determined by the Griess reaction as an indicator of nitric oxide production as previously reported by Prado (2002) [Prado W A, Schiavon V F, Cunha F Q. Dual effect of local application of nitric oxide donors in a model of incision pain in rats. Eur J Pharmacol. 2002; 441:57-65]. Briefly, 100 microlitre of sera and 100 microlitre of Griess reagent (mix of 2% sulphanilamide in 5% phosphoric acid and 0.2% N(1-naphthyl) ethylenediamine hydrochloride) were mixed in 96-well ELISA plate and Absorbance was read at 550 nm. The concentration of nitrite was determined using a standard curve of sodium nitrite.
# [4] = tested on: macrophages; assay: Uptake of fluorescent CD36 ligands by macrophages (FACS); assay type: cell-based, murine; settings: macrophages pre-treated half an hour, ligand 1 hour
# Description: Briefly, 50 μl of 100 μM Abeta was pH adjusted to pH 9 with 5 microlitre of 1 M NaHCO3, followed by addition of 4 microlitre of the H2O solubilized reactive dye. Incubation at room temperature (˜22° C.) was performed for 15 min followed by immediate addition of 55 microlitre of the labeling reaction mixture onto a spin column packed with a 425 microlitre slurry of Biogel P-6 resin for removal of unincorporated dye. The resulting eluent (pH 7.4) was stored for up to 2 days at 4° C. or used immediately for cellular uptake experiments. Both ligands were exposed after pre-treatment of cells with A-O complex for half an hour. The ligands were exposed to cell cultures for 1 hour after which cells were either quenched with trypan blue (0.2%) or given acid wash.
# [5] = tested on: RAW264.7 macrophages; assay: qPCR of Cd74, Cd36 in serum starved macrophages; assay type: cell-based, murine; settings: unstimulated RAW264.7 macrophages, with respect to basal
# [6] = tested on: EOC20 microglial cells; assay: F-actin confocal microscopy of unstimulated EOC20 microglia; assay type: cell-based; settings: serum starved, 1 hour
# Method: To determine the morphological changes in microglia upon exposure to A-O complex, F-actin confocal microscopy was performed. For that poly-L-lysine coated coverslips were placed in the 24 well culture dishes containing 1 ml of complete media and cells were seeded over the cover slips. […] Post treatment, the cell culture media was then removed and cells were washed thrice with 1×PBS (pH 7.4). Cells were fixed in 4% PFA for 10 min at room temperature and then washed thrice with 1×PBS (pH 7.4). Cells were then exposed to Phalloidin-actin (F-actin) antibody for 20 min in the dark. Thereafter, cells were washed twice with 1×PBS (pH7.4) and mounted using DAPI Fluormount (Invitrogen, Carlsbad, Calif., USA). Cells were imaged on a Zeiss LSM510 META laser-scanning confocal microscope. A PlanApochromat 63/1.4 oil-immersion DIC M27 objective (Zeiss) was used for image acquisition. [Concentration of Phalloidin-actin antibody: 300 U of Phalloidin-actin (Invitrogen, Carlsbad, USA) was dissolved in 1.5 ml methanol to yield a concentration of 200 U/ml or 6.6 μM. 1 U of phalloidin is equal to 5 μl of methanolic stock].
substance,measurement,setting,value
"A-O complex: peptide complex of 100 μM Abeta1-42 (SEQ ID NO: 1) and 3 ng Glu-OC (SEQ ID NO: 2), incubated at 37° C. for 4 hours",reduction in paw edema,"[1]; 5 microgram per 100 g body weight i.p. 1 hour before carrageenan, first value (1 hour)",25%
same,reduction in paw edema,"[1]; 5 microgram per 100 g body weight i.p., second value (3rd hour)",48%
same,reduction in paw edema,"[1]; 5 microgram per 100 g body weight i.p., third value (5th hour)",58%
same,reduction in paw edema,"[1]; 20 microgram per 100 g body weight i.p., first value (1 hour)",30%
same,reduction in paw edema,"[1]; 20 microgram per 100 g body weight i.p., second value (3rd hour)",60%
same,reduction in paw edema,"[1]; 20 microgram per 100 g body weight i.p., third value (5th hour)",65%
same,reduction in paw edema,"[1]; 50 microgram per 100 g body weight i.p., first value (1 hour)",30%
same,reduction in paw edema,"[1]; 50 microgram per 100 g body weight i.p., second value (3rd hour)",57%
same,reduction in paw edema,"[1]; 50 microgram per 100 g body weight i.p., third value (5th hour)",65%
same,mRNA level of Cd11b,[2],significantly reversed
same,mRNA level of Cd36,[2],significantly induced
same,mRNA level of Cd74,[2],significantly reversed
same,serum nitrite level,[3],maximal efficiency to reduce serum nitrite level
same,uptake of mutant Abeta42 (mutant Aβ),[4],facilitates the uptake
same,uptake of oxidized-lipoprotein (oxLDL),[4],facilitates the uptake
same,increase in mRNA level of Cd36,[5],8 fold
same,increase in mRNA level of Cd74 (MHC-II),[5],3 fold
same,microglia morphology (F-actin),[6],rounded morphology with projections indicative of activation
